Data: patent US20250066286A1, “COMPOSITIONS OF (Z)-ENDOXIFEN AND METHODS OF ENRICHMENT THEREOF” (Atossa Therapeutics, Inc., priority 2022, published 2025)

Legend:
Type in all cases: physicochemical
[1] = Slurries of (Z)-endoxifen in solvent mixtures (XRPD); conditions: for Output Crystallinity [high/low/SC/oriented]: 50° C., 1 d
Method: Slurry experiments were performed with solvents with 50° C. (Z)-endoxifen was suspended in 500 μl of the solvent mixture to achieve the concentrations of 40 mg/ml or 100 mg/ml. The resultant solutions were stored at 50° C. for one day. For solvent mixtures which included acetone, the slurry was instead stored at 40° C. The suspensions were then recovered and filtered with a nylon filter (0.22 μm) during centrifugation at 4000 rpm for 3 minutes, and the collected solid (Z)-endoxifen was analyzed by XRPD as shown in FIG. 85-FIG. 91 and FIG. 1-FIG. 5.

[2] = Precipitation of (Z)-endoxifen by antisolvent addition, PAD and PAI (XRPD)
Method: Further (Z)-endoxifen crystallizations were performed utilizing antisolvents to affect precipitation. (Z)-endoxifen was dissolved in various solvents to obtain suspensions at room temperature that were then stirred overnight and filtered with a nylon filter (0.22 μm) to obtain a clear stock solution. Two different types of precipitation experiments were performed with the resulting clear stock solutions. For precipitation by antisolvent addition to a saturated solution (PAD) experiments, antisolvent was added dropwise to the clear stock solution during stirring at room temperature at a ratio of 1:5 or 1:10 stock solution:antisolvent. For precipitation by saturated solution addition to an antisolvent (PAI) experiments, the clear stock solution was added drop wise to antisolvent under magnetic stirring at room temperature at a ratio of 1:5 or 1:10 stock solution:antisolvent. All obtained precipitates from PAD and PAI experiments were filtered under vacuum and analyzed by XRPD. […] After storage if there was no precipitate, the solutions were evaporated at room temperature. All obtained precipitates were filtered under vacuum and analyzed by XRPD. PAD and PAI experiments were also performed on the clear solutions with a concentration of 20 mg/ml (Z)-endoxifen recovered from the solubility experiments, described in EXAMPLE 19. The clear solutions recovered were (Z)-endoxifen solutions in ethyl acetate, butyl acetate, 4-met-2-pentanone, and toluene. The procedure for the PAI and PAD was the same as described above.

[3] = Scale-up crystallizations of (Z)-endoxifen Form I, Form IV, Form VII (XRPD); conditions: ethyl acetate 0.8 mL sat, heptane 4 mL, RT to −20 °C, 1 d
Method: The acetonitrile slurry method for generating Form I (EXAMPLE 5) was performed on a 800 mg-scale. For this crystallization, 800 mg (Z)-endoxifen was partially dissolved in 8 ml acetonitrile at a concentration of 100 mg/ml and left under magnetic stirring at 50° C. for 2 days. Solid (Z)-endoxifen was collected from the slurry and analyzed by XRPD, confirming that the resultant solid was Form I. The remaining slurry was then filtered with a 0.45p m paper filter under vacuum and analyzed by XRPD, which indicated a yield of 94% for the resultant Form I
The EXAMPLE 6 procedure for generating Form IV by precipitation from 2-propanol/ethyl acetate (50/50 v/v) systems was scaled to both 500 mg and 1 g. For these crystallizations, (Z)-endoxifen was added to 2-propanol/ethyl acetate 50/50 (v/v) mixtures to achieve concentrations of 100 mg/ml. The solvent mixtures were then heated to 65° C. Once complete dissolution of (Z)-endoxifen occurred, the solvent mixtures were cooled to 25° C. at a rate of 0.2° C./minute. The solutions were maintained at 25° C. with stirring for 18 hours, and then vacuum filtered with a 0.45 μm paper filter.
The ethyl acetate:heptane crystallizations outlined in EXAMPLE 10 were repeated at larger scales. […]

[4] = Competitive slurries of (Z)-endoxifen polymorphs (XRPD); conditions: slurries of Forms I, IV and VII in various solvents, 3 days at room temperature or 24 hours at high temperature
Method: This example covers conversions of (Z)-endoxifen polymorphs in solvent slurries. Slurries of Forms I and VII were generated with Forms I, IV, and VII in various solvents, and incubated for either 3 days at room temperature or for 24 hours at high temperature. Following these incubations, polymorphs were collected from the slurries and characterized by XRPD.

[5] = PAD--GRAD-EVRT, butyl acetate 0.15 mL, butyl methyl ether 1.5 mL, RT
[6] = PAD--GRAD-EVRT, tetrahydrofuran 0.03 mL sat, acetone 0.3 mL, RT
[7] = PAD-GRAD-EVRT, ethyl acetate 0.15 mL, butyl methyl ether 1.5 mL, RT
[8] = PAD-GRAD-EVRT, toluene 0.15 mL, butyl methyl ether 1.5 mL, RT
[9] = PAD, butyl acetate 0.15 mL, 20 mg/mL, antisolvent heptane 0.75 mL, RT
[10] = PAD, butyl acetate 0.15 mL, 20 mg/mL, antisolvent heptane 1.5 mL, RT
[11] = PAD, ethyl acetate 0.15 mL, 20 mg/mL, antisolvent heptane 0.75 mL, RT
[12] = PAD, ethyl acetate 0.15 mL, 20 mg/mL, antisolvent heptane 1.5 mL, RT
[13] = PAD, tetrahydrofuran 0.03 mL sat, heptane 0.15 mL, RT
[14] = PAD, tetrahydrofuran 0.03 mL sat, water 0.15 mL, RT
[15] = PAD, tetrahydrofuran 0.03 mL sat, water 0.3 mL, RT
[16] = PAD, toluene 0.15 mL, 20 mg/mL, antisolvent heptane 1.5 mL, RT
[17] = PAI-GRAD-EVRT, tetrahydrofuran 0.03 mL sat, acetone 0.3 mL, RT
[18] = PAI, tetrahydrofuran 0.03 mL sat, heptane 0.15 mL, RT
[19] = PAI, tetrahydrofuran 0.03 mL sat, water 0.3 mL, RT

## CC/C(=C(\c1ccc(O)cc1)c1ccc(OCCNC)cc1)c1ccccc1 [(Z)-endoxifen, (Z)-4-(1-(4-(2-(methylamino)ethoxy)phenyl)-2-phenylbut-1-enyl)phenol]
[1]; SLHT-1D-H2O/THF(40 mg/ml), FIG. 3: water/tetrahydrofuran 95/5, 40 mg/mL
  Output Crystallinity [high/low/SC/oriented]: low
[1]; SLHT-1D-HEP/TOL(100 mg/ml), FIG. 89: heptane/toluene 50/50, 100 mg/mL
  Output Crystallinity [high/low/SC/oriented]: low
[1]; all solvent mixture slurries, 40 or 100 mg/ml, 50° C. (40° C. with acetone), one day
  Polymorphic form recovered (XRPD): Form I with varying degrees of purity
[2]; [5]
  Output Crystallinity [high/low/SC/oriented]: low
  Output Main phase [phase]: Form I
[2]; [6]
  Output Main phase [phase]: Form XII
  Output Traces [phase]: Form I
[2]; PAD-GRAD-EVRT, dimethylformamide 0.15 mL sat, butyl methyl ether 1.5 mL, RT
  Output Main phase [phase]: Form I
[2]; [7]
  Output Crystallinity [high/low/SC/oriented]: low
  Output Main phase [phase]: Form I
[2]; [8]
  Output Crystallinity [high/low/SC/oriented]: low
  Output Main phase [phase]: Form VIII
[2]; PAD-GRAD, butyl acetate 0.15 mL, butyl methyl ether 1.5 mL, 25 to −20 °C, ramp not controlled, 1 d
  Output Main phase [phase]: no solid
[2]; PAD-GRAD, dimethylformamide 0.15 mL sat, butyl methyl ether 1.5 mL, RT to −20 °C, 1 d
  Output Main phase [phase]: no solid
[2]; PAD-GRAD, ethyl acetate 0.15 mL, butyl methyl ether 1.5 mL, 25 to −20 °C, ramp not controlled, 1 d
  Output Main phase [phase]: no solid
[2]; PAD-GRAD, methyl isobutyl ketone 0.15 mL, butyl methyl ether 1.5 mL, 25 to −20 °C, ramp not controlled, 1 d
  Output Main phase [phase]: no solid
[2]; PAD-GRAD, tetrahydrofuran 0.03 mL sat, acetone 0.3 mL, RT to −20 °C, 1 d
  Output Main phase [phase]: no solid
[2]; PAD-GRAD, toluene 0.15 mL, butyl methyl ether 1.5 mL, 25 to −20 °C, ramp not controlled, 1 d
  Output Main phase [phase]: no solid
[2]; PAD, butyl acetate 0.15 mL, 20 mg/mL, antisolvent butyl methyl ether 0.75 mL, RT
  Output Main phase [phase]: no solid
[2]; PAD, butyl acetate 0.15 mL, 20 mg/mL, antisolvent butyl methyl ether 1.5 mL, RT
  Output Main phase [phase]: no solid
[2]; [9]
  Output Crystallinity [high/low/SC/oriented]: low
  Output Main phase [phase]: no solid
[2]; [10]
  Output Crystallinity [high/low/SC/oriented]: low
  Output Main phase [phase]: Form IX
[2]; PAD, dimethylformamide 0.15 mL sat, butyl methyl ether 0.75 mL, RT
  Output Main phase [phase]: no solid
[2]; PAD, dimethylformamide 0.15 mL sat, butyl methyl ether 1.5 mL, RT
  Output Main phase [phase]: no solid
[2]; PAD, dimethylformamide 0.15 mL sat, water 0.75 mL, RT
  Output Main phase [phase]: amorphous
[2]; PAD, ethyl acetate 0.15 mL, 20 mg/mL, antisolvent butyl methyl ether 0.75 mL, RT
  Output Main phase [phase]: no solid
[2]; PAD, ethyl acetate 0.15 mL, 20 mg/mL, antisolvent butyl methyl ether 1.5 mL, RT
  Output Main phase [phase]: no solid
[2]; [11]
  Output Crystallinity [high/low/SC/oriented]: low
  Output Main phase [phase]: no solid
[2]; [12]
  Output Crystallinity [high/low/SC/oriented]: low
  Output Main phase [phase]: Form IX
[2]; PAD, methyl isobutyl ketone 0.15 mL, 20 mg/mL, antisolvent butyl methyl ether 0.75 mL, RT
  Output Main phase [phase]: no solid
[2]; PAD, methyl isobutyl ketone 0.15 mL, 20 mg/mL, antisolvent butyl methyl ether 1.5 mL, RT
  Output Main phase [phase]: no solid
[2]; PAD, methyl isobutyl ketone 0.15 mL, 20 mg/mL, antisolvent heptane 0.75 mL, RT
  Output Main phase [phase]: no solid
[2]; PAD, methyl isobutyl ketone 0.15 mL, 20 mg/mL, antisolvent heptane 1.5 mL, RT
  Output Main phase [phase]: no solid
[2]; PAD, tetrahydrofuran 0.03 mL sat, acetone 0.15 mL, RT
  Output Main phase [phase]: no solid
[2]; PAD, tetrahydrofuran 0.03 mL sat, acetone 0.3 mL, RT
  Output Main phase [phase]: no solid
[2]; [13]
  Output Crystallinity [high/low/SC/oriented]: low
  Output Main phase [phase]: Form XIX
[2]; [14]
  Output Crystallinity [high/low/SC/oriented]: low
  Output Main phase [phase]: no solid
[2]; [15]
  Output Crystallinity [high/low/SC/oriented]: low
  Output Main phase [phase]: Form IV
[2]; PAD, toluene 0.15 mL, 20 mg/mL, antisolvent butyl methyl ether 0.75 mL, RT
  Output Main phase [phase]: no solid
[2]; PAD, toluene 0.15 mL, 20 mg/mL, antisolvent butyl methyl ether 1.5 mL, RT
  Output Main phase [phase]: no solid
[2]; PAD, toluene 0.15 mL, 20 mg/mL, antisolvent heptane 0.75 mL, RT
  Output Main phase [phase]: no solid
[2]; [16]
  Output Crystallinity [high/low/SC/oriented]: low
  Output Main phase [phase]: Amorphous
[2]; PAI-GRAD-EVRT, dimethylformamide 0.15 mL sat, butyl methyl ether 1.5 mL, RT
  Output Main phase [phase]: Form I
[2]; [17]
  Output Main phase [phase]: Form XII
  Output Traces [phase]: Form XIII
[2]; PAI-GRAD, dimethylformamide 0.15 mL sat, butyl methyl ether 1.5 mL, RT to −20 °C, 1 d
  Output Main phase [phase]: no solid
[2]; PAI-GRAD, tetrahydrofuran 0.03 mL sat, acetone 0.3 mL, RT to −20 °C, 3 d
  Output Main phase [phase]: no solid
[2]; PAI, dimethylformamide 0.15 mL sat, butyl methyl ether 1.5 mL, RT
  Output Main phase [phase]: no solid
[2]; PAI, dimethylformamide 0.15 mL sat, water 0.75 mL, RT
  Output Main phase [phase]: Form I
[2]; PAI, tetrahydrofuran 0.03 mL sat, acetone 0.3 mL, RT
  Output Main phase [phase]: no solid
[2]; [18]
  Output Crystallinity [high/low/SC/oriented]: low
  Output Main phase [phase]: Form XIX
[2]; [19]
  Output Crystallinity [high/low/SC/oriented]: low
  Output Main phase [phase]: Form IV
[3]; PAD-GRAD
  XRPD Results Phase in traces: Form XVI
[3]; PAI-GRAD
  XRPD Results Phase in traces: Form IX
[4]
  Polymorphic form recovered (XRPD): majority of slurries yielded high purity Form I, some of the slurries yielded Form I with traces of Form IV or Form VII, and six slurries yielded primarily Form IV
